One assay has as its target CDK4/Cyclin D3 (Homo sapiens, UniProt P11802+P30281). The experiment in a line: (§1) Kinase Assay: In vitro enzymatic activity of the CDK isoforms CDK2/CycA2, CDK4/CycD3 and CDK6/cycD3 were measured using Mobility Shift Assay that monitors phosphorylation ratio of FAM labelled peptide (Peptide 18 for CDK2/CycA2, Peptide 8 for CDK4/CycD3 and CDK6/cycD3). CDK2/CycA2 and CDK6/cycD3 were assayed under buffer conditions in the presence of 50 mM HEPES (pH 7.5), 10 mM MgCl2, 0.0015% Brij-35, and 2 mM dithiothreitol, CDK4/CycD3 with buffer condition of 20 mM HEPES (pH 7.5), 10 mM MgCl2, 0.01% Triton X-100, and 2 mM dithiothreitol. Prepare compounds to 50× of the final desired highest inhibitor concentration by 100% DMSO and serial dilution in 3-fold for total of 10 concentrations. […] After assay for 60 min, 180 min, 60 min respectively at 28° C., reactions were terminated with stop solution (50 mM EDTA, 0.015% Brij-35, 0.2% Coating Reagent #3 and 100 mM HEPES (pH 7.5)). Collect conversion on Caliper EZ Reader. In kind it is protein-complex assay.

The next assay concerns the target CDK2/Cyclin A2 (Homo sapiens, UniProt P24941). The assay is described as §1. It is filed as protein-complex assay.

Chain of CDK4/Cyclin D3 (P11802 whole entry, canonical isoform): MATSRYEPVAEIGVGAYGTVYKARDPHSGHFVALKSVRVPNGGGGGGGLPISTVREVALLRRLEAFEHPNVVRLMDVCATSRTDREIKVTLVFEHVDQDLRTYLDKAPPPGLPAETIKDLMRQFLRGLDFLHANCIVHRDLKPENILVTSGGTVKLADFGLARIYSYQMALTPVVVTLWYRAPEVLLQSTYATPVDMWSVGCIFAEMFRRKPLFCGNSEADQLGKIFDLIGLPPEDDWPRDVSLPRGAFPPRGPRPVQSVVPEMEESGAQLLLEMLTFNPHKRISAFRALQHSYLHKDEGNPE
Chain of CDK4/Cyclin D3 (P30281 whole entry, canonical isoform): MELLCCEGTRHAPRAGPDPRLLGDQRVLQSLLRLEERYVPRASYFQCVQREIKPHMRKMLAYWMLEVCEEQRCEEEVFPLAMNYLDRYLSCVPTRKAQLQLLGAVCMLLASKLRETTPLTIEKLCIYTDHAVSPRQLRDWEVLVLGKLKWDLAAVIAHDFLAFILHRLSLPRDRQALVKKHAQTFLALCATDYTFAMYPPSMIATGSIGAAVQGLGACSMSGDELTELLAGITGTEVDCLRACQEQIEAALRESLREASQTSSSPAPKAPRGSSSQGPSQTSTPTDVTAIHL

With `CC(=O)c1c(C)c2cnc(Nc3ccc(N4CC5CNCC(C4)C5(F)F)cn3)nc2n(C2CCCC2)c1=O`, on CDK4/Cyclin D3, the IC50 was under 100 nM.
In the case of `CC(=O)c1c(C)c2cnc(Nc3ccc4c(c3)OC[C@@H]3CNCCN43)nc2n(C2CCCC2)c1=O`, the IC50 on CDK2/Cyclin A2 was under 10 nM.
On to `CC(=O)c1c(C)c2cnc(Nc3ccc4c(c3)OC[C@H]3CNCCN43)nc2n(C2CCCC2)c1=O`, for which, at CDK2/Cyclin A2, the IC50 is under 10 nM.
